Test results reported in patent publication US20110110879A1, “Compositions and Methods for Enhancing Eyelashes” (Avon Products, Inc., priority 2009, published 2011).
Each block holds one compound with its values, some of them ahead of it.

Key:
[1] = system: keratin 5; assay: In vitro assay for keratin 5 production in keratinocytes; type: cell-based; conditions: concentration of 0.01%
[2] = system: lipid peroxidation in keratinocytes; assay: In vitro assay of lipid peroxidation in keratinocytes; type: cell-based; conditions: concentration of 0.001%
[3] = system: fibronectin; conditions: fibroblasts; concentrations of 2×10^−5% and 2×10^−6%
[4] = target: MMP-3 (Homo sapiens, UniProt P08254); assay: In vitro assay of MMP-3 enzymatic activity; type: biochemical; conditions: concentration of 2×10^−7%
Chain of MMP-3 (P08254 100-477, species assumed): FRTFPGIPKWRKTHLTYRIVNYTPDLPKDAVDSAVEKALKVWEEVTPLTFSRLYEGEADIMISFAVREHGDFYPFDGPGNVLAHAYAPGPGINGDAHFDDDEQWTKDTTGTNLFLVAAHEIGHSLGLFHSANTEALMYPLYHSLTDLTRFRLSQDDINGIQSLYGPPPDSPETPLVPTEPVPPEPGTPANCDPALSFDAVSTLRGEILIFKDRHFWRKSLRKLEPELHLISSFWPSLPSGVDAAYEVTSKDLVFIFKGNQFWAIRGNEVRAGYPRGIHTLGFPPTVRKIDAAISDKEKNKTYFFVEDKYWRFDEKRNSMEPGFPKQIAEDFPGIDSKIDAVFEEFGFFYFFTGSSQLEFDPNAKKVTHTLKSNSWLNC

[5] = system: elastin; conditions: fibroblasts; concentrations of 2×10^−5% and 2×10^−6%
[6] = system: collagen IV; conditions: fibroblasts; concentrations of 2×10^−5% and 2×10^−6%

Compound: CN(CC(=O)O)C(=N)N [creatine]
keratin 5 production [1]: can increase keratin 5 production

Compound: CC(=O)Oc1c(C)c(C)c2c(c1C)CCC(C)(CCC[C@H](C)CCC[C@H](C)CCCC(C)C)O2 (stereo partly drawn) [tocopherol acetate]
lipid peroxidation [2]: can inhibit lipid peroxidation

enzymatic activity of MMP-3 [4]: can decrease enzymatic activity
Compound: N-biotinyl-gly-his-lys
production of fibronectin [3]: can increase production
production of elastin [5]: can increase production
production of collagen IV [6]: can increase production
